Reference: US8163781B2, “Bi-aryl aminotetralines” (Hoffman-La Roche Inc., priority 2008, dated 2012)

Target: T1, human CRTH2 (Homo sapiens, UniProt Q9Y5Y4)
T1 construct: expressed in transfected cells
T1 sequence (Q9Y5Y4 1-395): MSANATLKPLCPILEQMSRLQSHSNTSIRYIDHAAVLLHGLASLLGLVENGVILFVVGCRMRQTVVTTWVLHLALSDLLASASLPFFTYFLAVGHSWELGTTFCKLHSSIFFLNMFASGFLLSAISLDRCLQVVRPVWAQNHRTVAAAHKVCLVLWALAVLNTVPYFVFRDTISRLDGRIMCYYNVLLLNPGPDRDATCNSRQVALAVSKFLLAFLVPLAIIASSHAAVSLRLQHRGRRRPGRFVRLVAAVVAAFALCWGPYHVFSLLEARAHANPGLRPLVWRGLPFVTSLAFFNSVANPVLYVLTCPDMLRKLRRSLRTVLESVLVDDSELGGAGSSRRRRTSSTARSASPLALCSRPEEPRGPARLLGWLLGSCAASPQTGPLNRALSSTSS
Assay: Human CRTH2 Receptor Binding Assay
Conditions: whole cell binding, CHO-K1 cells expressing human CRTH2, 20 nM [3H]ramatroban as competing radioligand
Description: A whole cell receptor binding assay using [^3H]ramatroban as the competing radioactive ligand was employed to evaluate the compound binding activity to human CRTH2. The radioactive ligand [^3H]ramatroban was synthesized according to Sugimoto et. al. (Eur. J. Pharmacol. 524, 30-37, 2005) to a specific activity of 42 Ci/mmol.
A cell line stably expressing human CRTH2 was established by transfecting CHO-K1 cells with two mammalian expression vectors that harbored human CRTH2 and G-alpha16 cDNAs, respectively, using FuGene® 6 transfection reagent (from Roche). Stable clones expressing CRTH2 were selected by staining each clone with BM16 (BD Pharmingen™ from BD Biosciences, a division of Becton, Dickinson and Company), which is a rat monoclonal antibody to human CRTH2. The cells were maintained as monolayer cultures in Ham's F-12 medium containing 10% fetal bovine serum, 100 units/mL penicillin, 100 μg/mL streptomycin, 2 mM glutamine, 0.5 mg/mL G418 (geneticin) for CRTH2, and 0.2 mg/mL hygromycin-B (for G-alpha 16). For whole cell receptor binding assay, the monolayer cells were rinsed once with PBS (phosphate buffered saline), dissociated using ethylenediaminetetraacetate (Versene™ EDTA from the Lonza Inc.), and suspended in PBS containing 10 mM MgCl2 and 0.06% BSA (bovine serum albumin) at 1.5×10^6 cells/mL.
The binding reactions (0.2 mL) were performed in 96-well plates at room temperature in PBS containing 1.5×10^5 cells, 10 mM MgCl2, 0.06% BSA, 20 nM [^3H]ramatroban, and test compound at various concentrations. After 1 hour of binding reactions, the cells were harvested on GF™/B filter microplates (microtiter plates with embedded glass fiber from PerkinElmer, Inc.) and washed 5 times with PBS using a Filtermate™ Harvester (a cell harvester that harvests and washes cells from microplates from PerkinElmer, Inc.). The radioactivities bound to the cells were determined using a microplate scintillation counter (TopCount® NXT, from PerkinElmer, Inc.) after adding 50 μL of Microscint™ 20 scintillation fluid (from PerkinElmer, Inc.) to each well of the filter plates. The radioactivity from non-specific binding was determined by replacing compound with 10 μM of 15(R)-15-methyl PGD2 (from Cayman Chemical Company) in the reaction mixtures. The radioactivity bound to the cells in the absence of compound (total binding) was determined by replacing compound with 0.25% of DMSO (dimethyl sulfoxide) in the reaction mixture. Specific binding data were obtained by subtracting the radioactivity of non-specific binding from each binding data.
The IC50 value is defined as the concentration of the tested compound that is required for 50% inhibition of total specific binding. In order to calculate the IC50 value, the percent inhibition data were determined for 7 concentrations for each compound. The percent inhibition for a compound at each concentration was calculated according to the following formula, [1-(specific binding in the presence of compound)/(total specific binding)]×100. The IC50 value was then obtained by fitting the percent inhibition data to a sigmoidal dose-response (4 parameter logistic) model in the XLfit® software Excel add-in program [from ID Business Solutions Ltd., model 205, where F(x)=(A+(B−A)/(1+((C/x)^D)))].

Row | IC50 [nM] | Structure (SMILES)
1 | 157 | Cc1ccc(-c2ccc(S(=O)(=O)N[C@@H]3CCCc4c(OCC(=O)O)cccc43)cc2C)cc1 [Example 3-34, [(R)-5-(2,4′-Dimethyl-biphenyl-4-sulfonylamino)-5,6,7,8-tetrahydro-naphthalen-1-yloxy]-acetic acid]
2 | 23.9 | O=C(O)COc1cccc2c1CCC[C@H]2NS(=O)(=O)c1ccc(-c2cccc([N+](=O)[O-])c2)cc1 [Example 3-41, [(R)-5-(3′-Nitro-biphenyl-4-sulfonylamino)-5,6,7,8-tetrahydro-naphthalen-1-yloxy]-acetic acid]
3 | 5.9 | Cc1cc(-c2ccc(S(=O)(=O)N[C@@H]3CCCc4c(OCC(=O)O)cccc43)cc2)cc(C(C)(C)C)c1 [Example 3-45, [(R)-5-(3′-tert-Butyl-5′-methyl-biphenyl-4-sulfonylamino)-5,6,7,8-tetrahydro-naphthalen-1-yloxy]-acetic acid]
4 | 4.8 | Cc1cc(-c2ccc(S(=O)(=O)N[C@@H]3CCCc4c(OCC(=O)O)cccc43)nc2)cc(C(C)(C)C)c1 [Example 3-48, {(R)-5-[5-(3-tert-Butyl-5-methyl-phenyl)-pyridine-2-sulfonylamino]-5,6,7,8-tetrahydro-naphthalen-1-yloxy}-acetic acid]
5 | 70.7 | O=C(O)COc1cccc2c1CCCC2NS(=O)(=O)c1ccc(-c2ccc(OC(F)(F)F)cc2)cn1 (stereo not drawn) [Example 3-62, {5-[5-(4-Trifluoromethoxy-phenyl)-pyridine-2-sulfonylamino]-5,6,7,8-tetrahydro-naphthalen-1-yloxy}-acetic acid]
6 | 13.5 | C[S+]([O-])c1cccc(-c2ccc(S(=O)(=O)N[C@@H]3CCCc4c(OCC(=O)O)cccc43)cc2)c1 (stereo partly drawn) [Example 4-1, [(R)-5-(3′-Methanesulfinyl-biphenyl-4-sulfonylamino)-5,6,7,8-tetrahydro-naphthalen-1-yloxy]-acetic acid]
7 | 147 | CN([C@@H]1CCCc2c(OCC(=O)O)cccc21)S(=O)(=O)c1ccc(Oc2ccc(Cl)cc2)c(Cl)c1 [Example 6-1, ((R)-5-{[3-Chloro-4-(4-chloro-phenoxy)-benzenesulfonyl]-methyl-amino}-5,6,7,8-tetrahydro-naphthalen-1-yloxy)-acetic acid]
8 | 2.9 | CN([C@@H]1CCCc2c(OCC(=O)O)cccc21)S(=O)(=O)c1cc(C(F)(F)F)cc(S(=O)(=O)c2ccc(Cl)cc2)c1 [Example 8-1, ((R)-5-{[3-(4-Chloro-benzenesulfonyl)-5-trifluoromethyl-benzenesulfonyl]-methyl-amino}-5,6,7,8-tetrahydro-naphthalen-1-yloxy)-acetic acid]

Second part, the compound before the results:

Row | Structure (SMILES) | IC50 [nM]
9 | O=C(O)COc1cccc2c1CCC[C@H]2NS(=O)(=O)c1ccc(Oc2ccc(F)cc2)c(C(F)(F)F)c1 [Example 2-42, {(R)-5-[4-(4-Fluoro-phenoxy)-3-trifluoromethyl-benzenesulfonylamino]-5,6,7,8-tetrahydro-naphthalen-1-yloxy}-acetic acid] | 11.2
10 | O=C(O)COc1cccc2c1CCCC2NS(=O)(=O)c1ccc(-c2cc(F)ccn2)cc1 (stereo not drawn) [Example 3-1, {5-[4-(4-Fluoro-pyridin-2-yl)-benzenesulfonylamino]-5,6,7,8-tetrahydro-naphthalen-1-yloxy}-acetic acid] | 55.1
11 | O=C(O)COc1cccc2c1CCCC2NS(=O)(=O)c1ccc(-c2cccnc2F)cc1 (stereo not drawn) [Example 3-3, {5-[4-(2-Fluoro-pyridin-3-yl)-benzenesulfonylamino]-5,6,7,8-tetrahydro-naphthalen-1-yloxy}-acetic acid] | 203
12 | Cc1cccc(-c2ccc(S(=O)(=O)NC3CCCc4c(OCC(=O)O)cccc43)cc2)n1 (stereo not drawn) [Example 3-9, {5-[4-(6-Methyl-pyridin-2-yl)-benzenesulfonylamino]-5,6,7,8-tetrahydro-naphthalen-1-yloxy}-acetic acid] | 74.9
13 | CS(=O)(=O)c1cncc(-c2ccc(S(=O)(=O)NC3CCCc4c(OCC(=O)O)cccc43)cc2)c1 (stereo not drawn) [Example 3-16, {5-[4-(5-Methanesulfonyl-pyridin-3-yl)-benzenesulfonylamino]-5,6,7,8-tetrahydro-naphthalen-1-yloxy}-acetic acid] | 20.3
14 | O=C(O)COc1cccc2c1CCC[C@H]2NS(=O)(=O)c1ccc(-c2ccc(O)cc2)cc1 [Example 3-23, [(R)-5-(4′-Hydroxy-biphenyl-4-sulfonylamino)-5,6,7,8-tetrahydro-naphthalen-1-yloxy]-acetic acid] | 124
15 | CN(C)C(=O)c1ccc(-c2ccc(S(=O)(=O)N[C@@H]3CCCc4c(OCC(=O)O)cccc43)cc2)cc1 [Example 3-30, [(R)-5-(4′-Dimethylcarbamoyl-biphenyl-4-sulfonylamino)-5,6,7,8-tetrahydro-naphthalen-1-yloxy]-acetic acid] | 67.1
